# Patent publication US10765114B2, “4-amino-6-(pyridyl and 2-substitutedphenyl)-picolinates and 6-amino-2-(pyridyl and 2-substitutedphenyl)-pyrimidine-4-carboxylates and their use as herbicides” (Dow AgroSciences LLC, priority 2013, dated 2020)
# Where two headings read alike, the source gives them in different places.
# Experiments:
# [1] = tested on: Key Broadleaf Weed and Crop Species; assay: Post-Emergent Test II (Table 5); format: in vivo; conditions: post-emergence, 336 h; for pest or weed control at 70 g/ha: application rate 70 (kg ai/ha; footnote: g ai/ha); for pest or weed control at 140 g/ha: application rate 140 (kg ai/ha; footnote: g ai/ha)
# In short: (§1)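 Visual injury ratings (0 = no injury, 100 = complete kill) were taken 14 days after treatment relative to untreated plants. Seedlings at the first or second true leaf stage received an overhead spray at 187 L/ha, and solvent-blank sprayed plants served as controls.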
# [2] = tested on: Key Grass and Sedge Weeds as well as Grass Crops; assay: Post-Emergent Test II (Table 6); format: in vivo; conditions: post-emergence, 336 h, 14 days after application; for pest or weed control at 70 g/ha: 70 g ai/ha; for pest or weed control at 140 g/ha: 140 g ai/ha
# In short: as §1
# [3] = Abutilon theophrasti, ABUTH: velvetleaf (Abutilon theophrasti), read-out: Visual Growth Reduction (%) 14 Days After Application ABUTH
# [4] = Amaranthus retroflexus, AMARE: redroot pigweed (Amaranthus retroflexus), read-out: Visual Growth Reduction (%) 14 Days After Application AMARE
# [5] = Brassica napus, BRSSS: oilseed rape, canola (Brassica napus), read-out: Visual Growth Reduction (%) 14 Days After Application BRSSS
# [6] = Chenopodium album, CHEAL: lambsquarters (Chenopodium album), read-out: Visual Growth Reduction (%) 14 Days After Application CHEAL
# [7] = Euphorbia heterophylla, EPHHL: wild poinsettia (Euphorbia heterophylla), read-out: Visual Growth Reduction (%) 14 Days After Application EPHHL
# [8] = Helianthus annuus, HELAN: sunflower (Helianthus annuus), read-out: Visual Growth Reduction (%) 14 Days After Application HELAN
# [9] = Viola tricolor, VIOTR: wild pansy (Viola tricolor), read-out: Visual Growth Reduction (%) 14 Days After Application VIOTR
# [10] = CYPSS, read-out: Visual Growth Reduction (%) 14 Days After Application CYPSS
# [11] = DIGSA: crabgrass (Digitaria sanguinalis), read-out: Visual Growth Reduction (%) 14 Days After Application DIGSA
# [12] = ORYSS (crop), read-out: Visual Growth Reduction (%) 14 Days After Application ORYSS
# [13] = SETFA: giant foxtail (Setaria faberi), read-out: Visual Growth Reduction (%) 14 Days After Application SETFA
# [14] = SORVU: grain sorghum (Sorghum vulgare), read-out: Visual Growth Reduction (%) 14 Days After Application SORVU
# [15] = TRZSS (crop), read-out: Visual Growth Reduction (%) 14 Days After Application TRZSS
# [16] = ZEAMX: maize, corn (Zea mays), read-out: Visual Growth Reduction (%) 14 Days After Application ZEAMX
Compound,"pest or weed control at 70 g/ha [1, 3]","pest or weed control at 140 g/ha [1, 3]","pest or weed control at 70 g/ha [1, 4]","pest or weed control at 140 g/ha [1, 4]","pest or weed control at 70 g/ha [1, 5]","pest or weed control at 140 g/ha [1, 5]","pest or weed control at 70 g/ha [1, 6]","pest or weed control at 140 g/ha [1, 6]","pest or weed control at 70 g/ha [1, 7]","pest or weed control at 140 g/ha [1, 7]","pest or weed control at 70 g/ha [1, 8]","pest or weed control at 140 g/ha [1, 8]","pest or weed control at 70 g/ha [1, 9]","pest or weed control at 140 g/ha [1, 9]",melting point,"pest or weed control at 70 g/ha [2, 10]","pest or weed control at 140 g/ha [2, 10]","pest or weed control at 70 g/ha [2, 11]","pest or weed control at 140 g/ha [2, 11]","pest or weed control at 70 g/ha [2, 12]",further results
COC(=O)c1nc(-c2ccc(Cl)c(F)c2C)c(Cl)c(N)c1Cl [Compound 3],60 to 74%,60 to 74%,95 to 100%,95 to 100%,0 to 29%,0 to 29%,60 to 74%,75 to 84%,0 to 29%,0 to 29%,75 to 84%,75 to 84%,0 to 29%,0 to 29%,122 to 136 °C,0 to 29%,0 to 29%,0 to 29%,0 to 29%,0 to 29%,"pest or weed control at 140 g/ha [2, 12]: 0 to 29%; pest or weed control at 70 g/ha [2, 13]: 0 to 29%; pest or weed control at 140 g/ha [2, 13]: 0 to 29%; pest or weed control at 70 g/ha [2, 14]: 0 to 29%; pest or weed control at 140 g/ha [2, 14]: 0 to 29%; pest or weed control at 70 g/ha [2, 15]: 0 to 29%; pest or weed control at 140 g/ha [2, 15]: 0 to 29%; pest or weed control at 70 g/ha [2, 16]: 0 to 29%; pest or weed control at 140 g/ha [2, 16]: 0 to 29%"
COC(=O)c1nc(-c2ccc(Cl)c(F)c2Cl)cc(N)c1Cl [Compound 72],95 to 100%,95 to 100%,95 to 100%,95 to 100%,85 to 94%,95 to 100%,95 to 100%,95 to 100%,85 to 94%,85 to 94%,75 to 84%,85 to 94%,95 to 100%,95 to 100%,183 to 189 °C,95 to 100%,95 to 100%,75 to 84%,75 to 84%,0 to 29%,"pest or weed control at 140 g/ha [2, 12]: 0 to 29%; pest or weed control at 70 g/ha [2, 13]: 75 to 84%; pest or weed control at 140 g/ha [2, 13]: 75 to 84%; pest or weed control at 70 g/ha [2, 14]: 60 to 74%; pest or weed control at 140 g/ha [2, 14]: 95 to 100%; pest or weed control at 70 g/ha [2, 15]: 45 to 59%; pest or weed control at 140 g/ha [2, 15]: 45 to 59%; pest or weed control at 70 g/ha [2, 16]: 60 to 74%; pest or weed control at 140 g/ha [2, 16]: 75 to 84%"
